Where a chain is given by its changes, count along the chain named.
target: not listed separately; assay: Competitive inhibition of Fabrazyme (human recombinant alpha-galactosidase) using 4-nitrophenyl alpha-galactopyranoside as substrate pre-incubated for up to 5 mins before substrate addition

| Ki | Compound |
| --- | --- |
| > 2000 µM | CN(C)c1cccc2c(S(=O)(=O)NCCCCCCN(C)[C@H]3[C@H](O)[C@@H](O)[C@@H](O)[C@H]3CO)cccc12 |
| 238 µM | CN(C)c1cccc2c(S(=O)(=O)NCCCCCCN[C@H]3[C@H](O)[C@@H](O)[C@@H](O)[C@H]3CO)cccc12 |
| > 2000 µM | N#CCCCN[C@H]1[C@H](O)[C@@H](O)[C@@H](O)[C@H]1CO |
| > 2000 µM | OC[C@@H]1[C@H](O)[C@H](O)[C@@H](O)[C@@H]1N1CCCC1 |

target: not listed separately; assay: Competitive inhibition of Saccharomyces cerevisiae alpha-glucosidase using 4-nitrophenyl alpha-[…] as substrate pre-incubated for up to 5 mins before substrate addition

| Ki | Compound |
| --- | --- |
| > 2000 µM | CN(C)c1cccc2c(S(=O)(=O)NCCCCCCN(C)[C@H]3[C@H](O)[C@@H](O)[C@@H](O)[C@H]3CO)cccc12 |
| > 2000 µM | CN(C)c1cccc2c(S(=O)(=O)NCCCCCCN[C@H]3[C@H](O)[C@@H](O)[C@@H](O)[C@H]3CO)cccc12 |
| > 2000 µM | N#CCCCN[C@H]1[C@H](O)[C@@H](O)[C@@H](O)[C@H]1CO |
| > 2000 µM | OC[C@@H]1[C@H](O)[C@H](O)[C@@H](O)[C@@H]1N1CCCC1 |

target: T1, Beta-galactosidase (Bos taurus, UniProt Q58D55); assay: Competitive inhibition of Bovine liver beta-galactosidase using 4-nitrophenyl beta-D-galactopyranoside as substrate pre-incubated for up to 5 mins before substrate addition
T1 sequence (Q58D55 whole entry): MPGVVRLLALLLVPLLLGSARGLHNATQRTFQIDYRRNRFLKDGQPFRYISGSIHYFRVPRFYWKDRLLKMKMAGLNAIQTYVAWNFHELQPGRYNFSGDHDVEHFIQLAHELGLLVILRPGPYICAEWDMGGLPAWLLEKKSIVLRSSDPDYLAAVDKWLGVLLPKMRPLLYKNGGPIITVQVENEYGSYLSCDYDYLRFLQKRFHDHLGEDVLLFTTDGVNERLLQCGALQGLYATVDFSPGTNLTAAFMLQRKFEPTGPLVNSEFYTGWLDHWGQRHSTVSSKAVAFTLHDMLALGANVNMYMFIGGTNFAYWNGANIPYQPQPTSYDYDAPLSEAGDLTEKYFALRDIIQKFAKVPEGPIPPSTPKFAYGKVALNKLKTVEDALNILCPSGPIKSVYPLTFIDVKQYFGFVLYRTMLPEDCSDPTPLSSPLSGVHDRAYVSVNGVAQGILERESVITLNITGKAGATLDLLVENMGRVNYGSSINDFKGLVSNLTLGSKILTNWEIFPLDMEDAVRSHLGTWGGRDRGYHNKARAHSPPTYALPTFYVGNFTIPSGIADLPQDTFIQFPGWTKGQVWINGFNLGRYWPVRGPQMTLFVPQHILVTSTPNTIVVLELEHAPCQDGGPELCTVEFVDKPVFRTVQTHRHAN

| Ki | Compound |
| --- | --- |
| 0.0053 µM | CN(C)c1cccc2c(S(=O)(=O)NCCCCCCN[C@H]3[C@H](O)[C@@H](O)[C@@H](O)[C@H]3CO)cccc12 |
| 0.13 µM | N#CCCCN[C@H]1[C@H](O)[C@@H](O)[C@@H](O)[C@H]1CO |

system: T2, Beta-galactosidase (Homo sapiens), P16278 [R201C]; assay: Chaperone activity at beta-galactosidase R201C mutant isolated from human patient fibroblasts assessed as increase in enzyme activity at 10 uM using 4-nitrophenyl beta-D-galactopyranoside as substrate relative to untreated control
T2 sequence (whole entry): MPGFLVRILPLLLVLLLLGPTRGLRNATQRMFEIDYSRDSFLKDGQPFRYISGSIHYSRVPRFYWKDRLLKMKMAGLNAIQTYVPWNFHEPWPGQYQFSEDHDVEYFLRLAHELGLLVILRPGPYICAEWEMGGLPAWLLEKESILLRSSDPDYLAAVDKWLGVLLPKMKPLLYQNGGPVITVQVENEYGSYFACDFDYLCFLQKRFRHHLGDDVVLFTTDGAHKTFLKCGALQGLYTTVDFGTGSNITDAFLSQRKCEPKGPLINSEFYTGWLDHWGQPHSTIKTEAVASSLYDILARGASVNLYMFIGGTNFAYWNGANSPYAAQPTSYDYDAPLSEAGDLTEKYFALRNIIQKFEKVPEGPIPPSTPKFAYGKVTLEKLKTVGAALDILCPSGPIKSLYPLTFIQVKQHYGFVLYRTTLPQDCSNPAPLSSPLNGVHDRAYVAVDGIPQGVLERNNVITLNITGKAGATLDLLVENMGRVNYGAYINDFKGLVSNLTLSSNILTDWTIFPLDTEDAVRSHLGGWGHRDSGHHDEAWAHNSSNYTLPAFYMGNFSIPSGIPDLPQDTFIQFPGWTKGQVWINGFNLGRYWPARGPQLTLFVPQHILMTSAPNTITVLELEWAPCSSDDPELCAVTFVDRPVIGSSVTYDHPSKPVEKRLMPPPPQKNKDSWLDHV

| fold change (FC) | Compound |
| --- | --- |
| 7.4 | CN(C)c1cccc2c(S(=O)(=O)NCCCCCCN[C@H]3[C@H](O)[C@@H](O)[C@@H](O)[C@H]3CO)cccc12 |

system: T2, Beta-galactosidase (Homo sapiens), P16278 [R201C]; assay: Chaperone activity at beta-galactosidase R201C mutant isolated from human patient fibroblasts assessed as increase in enzyme activity at 0.1 uM using 4-nitrophenyl beta-D-galactopyranoside as substrate relative to untreated control

| fold change (FC) | Compound |
| --- | --- |
| 4 | CN(C)c1cccc2c(S(=O)(=O)NCCCCCCN[C@H]3[C@H](O)[C@@H](O)[C@@H](O)[C@H]3CO)cccc12 |

system: T2, Beta-galactosidase (Homo sapiens), P16278 [R201C]; assay: Chaperone activity at beta-galactosidase R201C mutant isolated from human patient fibroblasts assessed as increase in enzyme activity at 1 uM using 4-nitrophenyl beta-D-galactopyranoside as substrate relative to untreated control

| fold change (FC) | Compound |
| --- | --- |
| 6 | CN(C)c1cccc2c(S(=O)(=O)NCCCCCCN[C@H]3[C@H](O)[C@@H](O)[C@@H](O)[C@H]3CO)cccc12 |

target: T3, Beta-galactosidase (Homo sapiens, UniProt P16278); assay: Competitive inhibition of human fibroblast lysosomal beta-galactosidase using 4-methylumbelliferyl-beta-D-galactopyranoside as substrate pre-incubated for up to 5 mins before substrate addition and measured after 30 mins
T3 sequence (P16278 whole entry): T2 sequence (whole entry) with C201R

| Ki | Compound |
| --- | --- |
| 0.29 µM | CN(C)c1cccc2c(S(=O)(=O)NCCCCCCN[C@H]3[C@H](O)[C@@H](O)[C@@H](O)[C@H]3CO)cccc12 |

target: T4, Lysosomal acid glucosylceramidase (Homo sapiens, UniProt P04062); assay: Competitive inhibition of recombinant beta-glucocerebrosidase (unknown origin) using 4-nitrophenyl beta-D-[…] as substrate pre-incubated for up to 5 mins before substrate addition
T4 sequence (P04062 whole entry): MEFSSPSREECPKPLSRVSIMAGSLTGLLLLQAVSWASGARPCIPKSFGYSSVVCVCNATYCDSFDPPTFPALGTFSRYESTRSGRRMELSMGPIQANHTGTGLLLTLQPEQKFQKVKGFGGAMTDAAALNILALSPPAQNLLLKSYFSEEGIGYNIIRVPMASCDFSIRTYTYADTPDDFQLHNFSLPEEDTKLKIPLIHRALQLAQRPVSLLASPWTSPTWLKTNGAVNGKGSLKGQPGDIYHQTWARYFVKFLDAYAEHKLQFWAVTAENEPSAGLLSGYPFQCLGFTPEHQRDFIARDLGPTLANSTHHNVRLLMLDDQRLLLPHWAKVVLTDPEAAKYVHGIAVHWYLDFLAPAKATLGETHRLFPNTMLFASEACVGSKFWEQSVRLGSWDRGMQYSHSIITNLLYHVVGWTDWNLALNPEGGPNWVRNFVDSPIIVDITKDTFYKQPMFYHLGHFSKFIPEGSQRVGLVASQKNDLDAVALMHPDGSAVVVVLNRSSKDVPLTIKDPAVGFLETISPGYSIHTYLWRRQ

| Ki | Compound |
| --- | --- |
| 0.001 µM | CN(C)c1cccc2c(S(=O)(=O)NCCCCCCN(C)[C@H]3[C@H](O)[C@@H](O)[C@@H](O)[C@H]3CO)cccc12 |
| 0.019 µM | CN(C)c1cccc2c(S(=O)(=O)NCCCCCCN[C@H]3[C@H](O)[C@@H](O)[C@@H](O)[C@H]3CO)cccc12 |
| 10.3 µM | N#CCCCN[C@H]1[C@H](O)[C@@H](O)[C@@H](O)[C@H]1CO |
| 123 µM | OC[C@@H]1[C@H](O)[C@H](O)[C@@H](O)[C@@H]1N1CCCC1 |

system: not listed separately; assay: Competitive inhibition of Escherichia coli lacZ beta-galactosidase using 4-nitrophenyl beta-D-galactopyranoside as substrate pre-incubated for up to 5 mins before substrate addition

| Compound | Ki |
| --- | --- |
| CN(C)c1cccc2c(S(=O)(=O)NCCCCCCN(C)[C@H]3[C@H](O)[C@@H](O)[C@@H](O)[C@H]3CO)cccc12 | 0.016 µM |
| CN(C)c1cccc2c(S(=O)(=O)NCCCCCCN[C@H]3[C@H](O)[C@@H](O)[C@@H](O)[C@H]3CO)cccc12 | 0.01 µM |
| N#CCCCN[C@H]1[C@H](O)[C@@H](O)[C@@H](O)[C@H]1CO | 0.068 µM |
| OC[C@@H]1[C@H](O)[C@H](O)[C@@H](O)[C@@H]1N1CCCC1 | 33 µM |

target: not listed separately; assay: Competitive inhibition of Agrobacterium sp. beta-glucosidase using 4-nitrophenyl beta-D-galactopyranoside as substrate pre-incubated for up to 5 mins before substrate addition

| Ki | Compound |
| --- | --- |
| 0.0028 µM | CN(C)c1cccc2c(S(=O)(=O)NCCCCCCN(C)[C@H]3[C@H](O)[C@@H](O)[C@@H](O)[C@H]3CO)cccc12 |
| 0.0012 µM | CN(C)c1cccc2c(S(=O)(=O)NCCCCCCN[C@H]3[C@H](O)[C@@H](O)[C@@H](O)[C@H]3CO)cccc12 |
| 0.0024 µM | N#CCCCN[C@H]1[C@H](O)[C@@H](O)[C@@H](O)[C@H]1CO |
| 1.8 µM | OC[C@@H]1[C@H](O)[C@H](O)[C@@H](O)[C@@H]1N1CCCC1 |

From ChEMBL document CHEMBL4033736, “A new type of pharmacological chaperone for GM1-gangliosidosis related human lysosomal β-galactosidase: N-Substituted 5-amino-1-hydroxymethyl-cyclopentanetriols” (Bioorg Med Chem Lett, 2017)
